Literature values as cited in patent publication US9320798B2, “Lipid delivery formulations” (Dicerna Pharmaceuticals, Inc., priority 2010, dated 2016).

Tested on: TLR4
Conditions: Numata et al. PNAS USA 107: 320-325; Abate et al., J Lipid Res 51: 334-344

Structure (SMILES)	TLR4 activation
CCCCCCCC/C=C\CCCCCCCC(=O)O[C@H](COC(=O)CCCCCCCCCCCCCCC)COP(=O)(O)OCC(O)CO (some centres unmarked) [POPG, palmitoyl-oleoyl-phosphatidylglycerol]	capable of disrupting TLR4 activation
CCCCCCCCCCCCCCCC(=O)OC[C@H](COP(=O)([O-])OCC[N+](C)(C)C)OC(=O)CCCCCCCCCCCCCCC [DPPC, dipalmitoylphosphatidylcholine]	capable of disrupting TLR4 activation
